Series [1] in a line: The compound was evaluated for bioavailability in dogs; 34-44. The conditions noted are these: dog, in vivo; read-out: Bioavailabiility. In kind it is ADME, organism-based, Canis lupus familiaris.
A short description of series [2]: The compound was evaluated for bioavailability in rats; 32-51. In kind it is ADME, organism-based. The conditions noted are these: rat, in vivo; read-out: Bioavailabiility.

Turning to `Cl.Cl.N=C(N)NCCCNC(=O)[C@@H]1CCCCN1C(=O)[C@@H](CC1CCCCC1)NCC(=O)O`, the values for the bioavailability in series [1] and in series [2] were 44% and 51%, respectively.

Values taken from ChEMBL document CHEMBL1152078, “An efficient preparation of the potent and selective pseudopeptide thrombin inhibitor, inogatran” (Bioorg Med Chem Lett, 1997).
